Measured values: patent publication US6365178B1, “Method of making pressure sensitive adhesive matrix patches for transdermal drug delivery using hydrophilic salts of drugs and hydrophobic pressure sensitive adhesive dispersions” (priority 1996, dated 2002)

Tests used:
[1] = Visual/microscopic observation of matrix films for drug crystals after preparation and on storage (physical stability); type: physicochemical; conditions: for Drug crystals in dried matrix: Example 5; for Drug crystals in adhesive matrix/laminate: Example 6, DURO-TAK 2852 with propylene glycol/isopropyl myristate, 10% ketorolac on free acid basis, visual and microscopic
Procedure: As used herein, “physical stability” of a drug in a matrix patch includes the lack of recrystallization of the drug in the dried adhesive layer of the patch.
Pressure sensitive adhesive matrix systems described herein were prepared as follows. First, the solids content of a water-based or solvent-based adhesive in liquid form was determined by placing a known weight of liquid in a weighed aluminum dish and evaporating the solvents overnight in a 70° C. convection oven. The content of solid adhesive in the liquid was calculated by dividing the adhesive solid weight after drying by the initial total liquid weight. In some cases, the polyisobutylene (PIB) adhesives were prepared from polyisobutylene solids. The solid PIB was first dissolved in heptane to achieve a final solid content of about 30% by weight, and then the exact solid content was determined as described above. Next, a weighed quantity of adhesive liquid was added to a glass bottle, and the solid adhesive weight was calculated from the known solid fraction of the given adhesive liquid. The drug substance (hydrophilic salt or free drug form) was weighed and added to the adhesive solution in a quantity necessary to achieve a selected dry matrix film composition. The liquid containing the adhesive polymer drug substance was then mixed overnight. […] After mixing, approximately 8 ml of the solution was dispensed on a silanized polyester release liner and film cast using a casting knife with a gap size appropriate to achieve a final dried thickness of approximately 0.05-0.1 mm. The cast was dried in a 70° C. convection oven for 15-30 minutes to yield a dried matrix onto which an 0.08 mm thick polyethylene backing film was laminated. These matrix systems were then used to conduct in vitro skin flux experiments as described below. […]
The systems manufactured with the salt and the water-based adhesive dispersions were stored at room temperature and examined using optical microscopy at 100× magnification for the presence of drug crystals.

[2] = Dissolution of drug substance in liquid adhesive or solvent during matrix preparation; type: physicochemical; conditions: for Dissolution in organic solvent system: TSR, equivalent to 1% (w/w) tromethamine salt; for Dissolution in enhancer-acrylic adhesive solution: Example 6, DURO-TAK 2852 with propylene glycol/isopropyl myristate, 10% ketorolac on free acid basis
Procedure: Pressure sensitive adhesive matrix systems described herein were prepared as follows. First, the solids content of a water-based or solvent-based adhesive in liquid form was determined by placing a known weight of liquid in a weighed aluminum dish and evaporating the solvents overnight in a 70° C. convection oven. The content of solid adhesive in the liquid was calculated by dividing the adhesive solid weight after drying by the initial total liquid weight. In some cases, the polyisobutylene (PIB) adhesives were prepared from polyisobutylene solids. […] Next, a weighed quantity of adhesive liquid was added to a glass bottle, and the solid adhesive weight was calculated from the known solid fraction of the given adhesive liquid. The drug substance (hydrophilic salt or free drug form) was weighed and added to the adhesive solution in a quantity necessary to achieve a selected dry matrix film composition. The liquid containing the adhesive polymer drug substance was then mixed overnight. […] The cast was dried in a 70° C. convection oven for 15-30 minutes to yield a dried matrix onto which an 0.08 mm thick polyethylene backing film was laminated. These matrix systems were then used to conduct in vitro skin flux experiments as described below.

[3] = In vitro skin flux, modified Franz non-jacketed diffusion cells; type: in vitro ADME, human; conditions: Example 6, DURO-TAK 2852 patch; for Average cumulative amount of ketorolac released after 24 hours / In vitro skin flux of ketorolac: 10% ketorolac on free acid basis, 8% enhancer (propylene glycol/isopropyl myristate); for In vitro skin flux of ketorolac: Mean±SD, n=2/10 skins/diffusion cells
Procedure: In vitro skin flux studies were conducted using human cadaver epidermal membrane in modified Franz non-jacketed diffusion cells. […] This method involves the exposure of the fullthickness skin to water at 60° C. for 60 seconds. After this period, the epidermal membrane was gently peeled from the dermis and stored in aluminum foil at −5 ° C. Prior to skin permeation experiments, the silanized release liner was removed from the adhesive matrix system, and the adhesive was affixed to the stratum corneum side of the thawed epidermal membrane, which was then cut to an appropriate size and placed between the two halves of the diffusion cell with the stratum corneum facing the donor compartment.
The receiver compartment was filled with water or an aqueous buffer appropriate to maintain sink conditions for the drug. All receiver media included 0.02% (w/w) sodium azide to inhibit bacterial growth. The diffusion cell was placed in a temperature controlled circulating water bath calibrated to maintain the surface temperature of the skin at 32° C. The receiver compartment was constantly stirred by a magnetic stir bar in the receiver compartment agitated by a magnetic stirring module placed under the water bath. At predetermined sampling intervals, the entire contents of the receiver compartment were collected for drug quantitation, and the receiver compartment was filled with fresh receiver solution, taking care to eliminate any air bubbles at the skin/solution interface.
The cumulative amount of drug permeated per unit area at any time t (Qt, μg/cm^2) was determined according to the following equation: [formula]
where Ct (μg/cm^3) is the concentration of the receiver compartment at sample time t (hours), V is the volume of the receiver compartment of the diffusion cell (6.3 cm^3), and A is the diffusional area of the cell (0.64 cm^2).

[4] = disclosed in U.S. Pat. No. 5,589,498 (Example 2); cited from earlier work
[5] = TSR, equivalent to 1% (w/w) tromethamine salt

Compound: O=C(c1ccccc1)c1ccc2n1CCC2C(=O)O (centres unmarked) [ketorolac tromethamine]
- Drug crystals in dried matrix ([1]; NACOR 72-9965, 1% (w/w)): free of drug crystals
- Drug crystals in dried matrix [1, 5]: contained crystallized drug
- Drug crystals in adhesive matrix/laminate [1]: visibly cloudy and extensive crystals were visible
- Dissolution in water/emulsion system ([2]; Example 5, NACOR 72-9965, 1% (w/w)): dissolved completely
- Dissolution in organic solvent system ([2]; Example 5): did not completely dissolve
- Dissolution in enhancer-acrylic adhesive solution [2]: does not dissolve
- Average cumulative amount of ketorolac released after 24 hours [3]: 171.6±49.0 μg/cm^2
- In vitro skin flux of ketorolac [3]: 7.5±2.2 μg/cm^2/h
- Ketorolac flux as % of the flux observed with the system prepared with the free acid ([3]; 14.9% ketorolac tromethamine): 30%

Compound: O=C(c1ccccc1)c1ccc2n1CCC2C(=O)O (centres unmarked) [Ketorolac free acid, ketorolac]
- Drug crystals in dried matrix [1, 5]: visually free of any crystals
- Drug crystals in adhesive matrix/laminate [1]: visibly homogeneous and free from crystals
- Dissolution in organic solvent system ([2]; Example 5): completely dissolved
- Dissolution in enhancer-acrylic adhesive solution [2]: formed a homogeneous solution
- Average cumulative amount of ketorolac released after 24 hours [3]: 583.3±94.6 μg/cm^2
- In vitro skin flux of ketorolac [3]: 25.4±4.2 μg/cm^2/h
- 24 hour cumulative release [4]: 461.7±83.8
- Flux [4]: 21.6±3.6 μg/cm^2/h
